{
  "source": "patent US20110159086A1",
  "about": "“PHARMACEUTICAL FORMULATION COMPRISING A CB1-RECEPTOR COMPOUND IN A SOLID SOLUTION AND/OR SOLID DISPERSION” (LABORATORIOS DEL DR. ESTEVE, S.A., priority 2008, published 2011)",
  "key": {"[1]": {"assay": "Dissolution profiles of the hot melt extrusion formulations, Sink conditions (HCL 0.1N, pH 1.2 + Sodium Lauryl Sulfate 0.1%)", "format": "physicochemical", "details": "for % dissolved (pH 1.2 SLS 0.1%): Sink, HCL 0.1N pH 1.2 + SLS 0.1%, paddles 50 rpm, 1000 ml, 37° C.", "text": "(§1) A mixture has been prepared during two minutes in proportion as described in Table 4. The “Hot Melt Extrusion” formulations, in percentage, have been developed for each series.\n(§2) The mixture has been loaded in an extruder and the temperature has been adjusted according to the type of polymer used, as described below:\n(§3) The obtained extrudates have been cooled at room temperature and milled. The particle size has then been homogenized. A powder has been obtained which has then been dosified in capsules for administration\n(§4) The dissolution apparatus used was HANSON […]. SR8 PLUS, the UV spectrophotometer HEWLET PACKARD 8452.\nIn the SINK conditions, the active ingredient concentration in the dissolution medium is below 20% of the saturation concentration, i.e. the active ingredient will dissolve easily in the medium.\nThe conditions used for the Sink assays were:\nDissolution medium: HCL 0.1N, pH 1.2+Sodium Lauryl Sulfate 0.1%\n(§5) Vessel temperature 37° C."}, "[2]": {"assay": "Dissolution profiles of the hot melt extrusion formulations, Non-Sink conditions (HCL 0.1N, pH 1.2)", "format": "physicochemical", "details": "for % dissolved (pH 1.2): Non-Sink, HCL 0.1N pH 1.2, paddles 50 rpm, 1000 ml, 37° C.", "text": "as §1, §2, §3, §4\nIn the NON-SINK conditions, the active ingredient concentration in the dissolution medium is above the saturation concentration, i.e. the active ingredient is in a medium in which it is not soluble.\nThe conditions used for the Non-Sink assays were:\nDissolution medium: HCL 0.1N, pH 1.2\nas §5"}, "[3]": {"assay": "Pharmacokinetic study in rats, plasma levels of the (4S,5S) cis enantiomer by chiral LC-MS/MS", "format": "in vivo, male Wistar Hannover rats", "details": "for Vd: male, rat"}, "[4]": {"details": "Solubility increase (Δ) = FD60 min formulation/FD % 60 min (drug), FD = dissolved drug fraction"}, "[5]": {"details": "Wistar Hannover (HSDHan:WIST), po, 20 mg/kg, male rat, single dose, fasting, analyte (4S,5S) cis enantiomer in plasma, suspension = active alone in 5% arabic gum, HME = example 15"}, "[6]": {"details": "Wistar Hannover, plasma, iv, 1 mg/kg, male rat, solution"}},
  "note": "Where two headings read alike, the source gives them in different places.",
  "data": [
    {"smiles": "C[C@@H]1C(C(=O)NN2[C@H](C)CCC[C@@H]2C)=NN(c2ccc(Cl)cc2Cl)[C@@H]1c1ccc(Cl)cc1", "note": "[(4S,5S) cis enantiomer, (4S,5S)-5-(4-chlorophenyl)-1-(2,4-dichlorophenyl)-N-(cis-2,6-dimethylpiperidin-1-yl)-4-methyl-4,5-dihydro-1H-pyrazole-3-carboxamide]", "values": [
      {"measurement": "Increase (Δ) 60 min. Sink Conditions", "setting": "[1]; [4]", "value": 0.00},
      {"measurement": "% dissolved (pH 1.2 SLS 0.1%)", "setting": "[1]; time 0 min", "value": 0.0, "unit": "%"},
      {"measurement": "% dissolved (pH 1.2 SLS 0.1%)", "setting": "[1]; time 5 min", "value": 4.1, "unit": "%"},
      {"measurement": "% dissolved (pH 1.2 SLS 0.1%)", "setting": "[1]; time 10 min", "value": 6.5, "unit": "%"},
      {"measurement": "% dissolved (pH 1.2 SLS 0.1%)", "setting": "[1]; time 15 min", "value": 11.8, "unit": "%"},
      {"measurement": "% dissolved (pH 1.2 SLS 0.1%)", "setting": "[1]; time 20 min", "value": 16.0, "unit": "%"},
      {"measurement": "% dissolved (pH 1.2 SLS 0.1%)", "setting": "[1]; time 30 min", "value": 24.3, "unit": "%"},
      {"measurement": "% dissolved (pH 1.2 SLS 0.1%)", "setting": "[1]; time 45 min", "value": 37.8, "unit": "%"},
      {"measurement": "% dissolved (pH 1.2 SLS 0.1%)", "setting": "[1]; time 60 min", "value": 53.0, "unit": "%"},
      {"measurement": "Increase (Δ) 60 min. Non Sink Conditions", "setting": "[2]; [4]", "value": 0.00},
      {"measurement": "% dissolved (pH 1.2)", "setting": "[2]; time 0 min", "value": 0.0, "unit": "%"},
      {"measurement": "% dissolved (pH 1.2)", "setting": "[2]; time 5 min", "value": 2.2, "unit": "%"},
      {"measurement": "% dissolved (pH 1.2)", "setting": "[2]; time 10 min", "value": 1.9, "unit": "%"},
      {"measurement": "% dissolved (pH 1.2)", "setting": "[2]; time 15 min", "value": 1.4, "unit": "%"},
      {"measurement": "% dissolved (pH 1.2)", "setting": "[2]; time 20 min", "value": 1.5, "unit": "%"},
      {"measurement": "% dissolved (pH 1.2)", "setting": "[2]; time 30 min", "value": 1.6, "unit": "%"},
      {"measurement": "% dissolved (pH 1.2)", "setting": "[2]; time 45 min", "value": 2.7, "unit": "%"},
      {"measurement": "% dissolved (pH 1.2)", "setting": "[2]; time 60 min", "value": 2.9, "unit": "%"},
      {"measurement": "AUC(0-t)", "setting": "[3]; [5]", "value": 374, "unit": "ng·h/mL"},
      {"measurement": "Tmax", "setting": "[3]; [5]", "value": 6, "unit": "h"},
      {"measurement": "Cmax", "setting": "[3]; Wistar Hannover (HSDHan:WIST), po, 20 mg/kg, male rat, single dose, fasting, analyte (4S,5S) cis enantiomer in plasma, suspension = active alone in 5% arabic gum, HME = example 15, read-out: Cmax", "value": 103, "unit": "ng/mL"},
      {"measurement": "AUC(0-inf)", "setting": "[3]; [6]", "value": 559, "unit": "ng·h/mL"},
      {"measurement": "AUC(0-t)", "setting": "[3]; [6]", "value": 534, "unit": "ng·h/mL"},
      {"measurement": "clearance", "setting": "[3]; [6]", "value": 30, "unit": "mL/min/kg"},
      {"measurement": "half-life", "setting": "[3]; [6]", "value": 492, "unit": "min"},
      {"measurement": "Cmax", "setting": "[3]; Wistar Hannover, plasma, iv, 1 mg/kg, male rat, solution, read-out: Cmax (C0 for intravenous)", "value": 828, "unit": "ng/mL"},
      {"measurement": "Vd", "setting": "[3]; Wistar Hannover, plasma, iv, 1 mg/kg, iv, 1 mg/kg, solution, read-out: Vd", "value": 21.1, "unit": "L/kg"},
      {"measurement": "Vd", "setting": "[3]; Wistar Hannover, plasma, iv, 1 mg/kg, iv, 1 mg/kg, solution, read-out: Vss", "value": 8.7, "unit": "L/kg"},
      {"measurement": "F (Absolute bioavailability estimated from AUC0-t)", "setting": "[3]; po, 20 mg/kg, male rat, versus iv 1 mg/kg solution, suspension = active alone in 5% arabic gum, HME = example 15", "value": 3.5, "unit": "%"}
    ]}
  ]
}
